Columns and labels:
FAK kinase = target: T1, FAK kinase (Homo sapiens, UniProt Q05397); assay: ADP-Glo kinase enzymatic assay; assay type: biochemical; conditions: mean ± SD of three independent experiments
T1 construct: purchased Promega Corporation V9301
Method: The ADP-Glo™ Kinase Assay Kit and FAK Kinase Enzyme (Catalog. V9301) were purchased from Promega Corporation (Madison, WI, USA). The experiments were performed according to the detailed and complete protocols of the manufacturer. Briefly, the concentration of FAK determined by optimization experiments was 0.1 μg/μL. Suitable concentration gradients from 1.6 to 1000 nM were set for all the tested compounds. A kinase reaction buffer, a substrate/ATP mixture, and a FAK solution were prepared right before use. The 5 μL kinase reaction consisted of 1 μL of compound solution, 2 μL of substrate/ATP mixture, and 2 μL of FAK solution. The control without enzyme was provided by 3 μL of kinase reaction buffer and 2 μL of substrate/ATP mixture. The negative control was prepared using 1 μL of kinase reaction buffer instead of a compound solution. The kinase reactions were added to a 384-well plate and incubated at room temperature for 60 min, then 5 μL of ADP-Glo™ Reagent was added to stop the kinase reaction and deplete the unconsumed ATP, and incubated at room temperature for 40 min. After adding 10 μL of Kinase Detection Reagent, the plate was incubated at room temperature for 30 min and then luminescence was recorded (integration time 0.5–1 s) on a TriStar® LB942 Multimode Microplate Reader (BERTHOLD TECHNOLOGIES GmbH & Co. KG., Bad Wildbad, Germany). Curve fitting and data presentations were performed using GraphPad Prism version 8.0.

[1] = tested on: H1975 non-small cell lung cancer (NSCLC) cells; assay: CCK-8 cell viability assay, H1975; assay type: cell-based; conditions: Homo sapiens, NCI-H1975, CCK-8, 72 h, mean ± SD of three experiments, read-out: Antiproliferative Activity IC50, H1975
Method: (§1) The H1975 human NSCLC cell line was obtained from ATCC. A431 human epithelial carcinoma and HBE human bronchial epithelial cell lines were kind gifts from Fuheng Biological Company Ltd. (Shanghai, China) and YuXi Biotech Company (Jiangsu, China), respectively. The cells were maintained in RPMI 1640 or DMEM (Gibco®, Thermo Fisher Scientific Inc., Waltham, MA, USA) containing 10% fetal bovine serum (FBS, Gibco®) and 1% penicillin-streptomycin (Beyotime Company, Shanghai, China) at 37 °C in a 5% CO2 incubator.
(§2) A total of 3000 cells of H1975 or HBE and 5000 cells of A431 were seeded for each well into a 96-well plate and cultured in 10% FBS respective growth medium overnight. Various concentrations (0–20 μM) of each compound were then added in triplicate to the cells. After 72 h of incubation, 10 μL of CCK-8 solution (5.0 mg/mL, Biotool Company, Kirchberg, Switzerland) was added to each well and the cells continued to culture for 4 h. The optical density (OD) was determined at 450 nm with a microplate reader (Thermo Fisher Scientific, Waltham, MA, USA). IC50 values were calculated employing GraphPad Prism version 8.0.

[2] = tested on: A431 human epithelial carcinoma cells; assay: CCK-8 cell viability assay, A431; assay type: cell-based; conditions: A-431, CCK-8, 72 h, mean ± SD of three experiments, read-out: Antiproliferative Activity IC50, A431
Method: as §1, §2

[3] = tested on: normal human bronchial epithelial cells (HBE); assay: CCK-8 cellular selectivity assay, HBE; assay type: cell-based
Method: as §1, §2

H1975 cells [4] = assay: Annexin V-FITC/PI flow cytometry apoptosis assay; assay type: cell-based, human; conditions: H1975, 0.1, 0.5, 1 μM, 48 h
Method: (§3) H1975 cells were seeded at a density of 1 × 10^5 cells/well into 6-well plates for 24 h and then exposed to different concentrations of inhibitors for 48 h. The cells were harvested. (1) The cells were stained with Annexin V-FITC (5 µL)/propidium iodide (5 µL), and the samples were detected and flow cytometry (Becton-Dickinson, Franklin Lakes, NJ, USA) was performed to quantify the number of apoptotic cells. (2) The cells were stained with propidium iodide (PI) in the dark for 30 min, and then analyzed for cell cycle distribution by the flow cytometry assay.

H1975 cells [5] = assay: Cell cycle analysis by PI flow cytometry; assay type: cell-based, human; conditions: 48 h
Method: as §3

H1975 cells [6] = assay: Scratch (cell migration) assay; assay type: cell-based, human; conditions: H1975, 0.1, 0.5, and 1 μM, 24 h
Method: H1975 cells were seeded in 6-well plates and incubated for 12 h. When cells were grown to 90–100% confluency in a monolayer, wounds were generated using a pipette tip. […] The images were captured to record the status of cells near the scratch lines at the beginning and after 12 and 24 h.

H1975 cells [7] = assay: AO/EB staining assay; assay type: cell-based, human; conditions: H1975, 0.1, 0.5, and 1 μM
Method: H1975 cells at a density of 1 × 10^5 cells/well in 6-well plates were incubated for 24 h. After discarding the original culture medium, different concentrations of inhibitors were used. The cells were incubated for 48 h and then washed with phosphate-buffered saline (PBS) three times. Cells were subsequently incubated in the dye mix containing 1.0 µg/mL of AO and 1.0 µg/mL of EB in PBS at 37 °C for 5 min, and then washed with PBS. The apoptotic, necrotic, and live cells were examined under the fluorescent inverted microscope (OLYMPUS, Tokyo, Japan).

T1 sequence (Q05397 393-698 limits assumed): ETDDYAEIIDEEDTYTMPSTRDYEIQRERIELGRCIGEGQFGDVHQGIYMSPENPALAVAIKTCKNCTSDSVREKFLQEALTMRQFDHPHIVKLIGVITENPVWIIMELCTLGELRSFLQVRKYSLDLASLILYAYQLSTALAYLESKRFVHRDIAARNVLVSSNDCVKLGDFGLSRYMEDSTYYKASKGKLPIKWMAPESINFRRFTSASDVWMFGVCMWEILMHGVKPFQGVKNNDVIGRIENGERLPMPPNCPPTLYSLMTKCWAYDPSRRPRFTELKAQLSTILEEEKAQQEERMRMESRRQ

SMILES: O=C(NCCO)c1ccccc1Nc1nc(Nc2ccc(CN3CCOCC3)cc2)ncc1Cl [Compound 8a, 2-((5-Chloro-2-((4-(morpholinomethyl)phenyl)amino)pyrimidin-4-yl)amino)-N-(2-hydroxyethyl)benzamide]
- IC50 (FAK kinase): 0.047 ± 0.006 µM
- IC50 [1]: 0.044 ± 0.011 µM
- IC50 [2]: 0.119 ± 0.036 µM
- IC50 ([3]; Homo sapiens, Epithelial cell, HBE normal cells, CCK-8, 72 h, mean ± SD of three experiments, read-out: Antiproliferative Activity IC50, HBE): 1.04 ± 0.266 µM
- SI Values (selectivity index) ([3]; IC50 for HBE cell line/IC50 for H1975 cell line): 24
- Apoptosis induction (in words) (H1975 cells [4]): substantially increased the extent of apoptosis in H1975 cells in a dose-dependent manner
- %G1 (G0/G1 phase) cells (H1975 cells [5]; H1975, 1.0 μM): 39.06%
- %G2 (G2/M phase) cells (H1975 cells [5]; H1975, 1.0 μM): 37.29%
- %S phase cells (H1975 cells [5]; H1975, 1.0 μM): 23.65%
- Cell cycle arrest (in words) (H1975 cells [5]; H1975, 0.1, 0.5, and 1 μM): induced cell cycle arrest in S/G2 phase in a dose-dependent manner
- Cell migration (in words) (H1975 cells [6]): reduced migration distances
- Apoptotic morphology (in words) (H1975 cells [7]): exhibited certain morphological phenomena characteristic of apoptosis

From article PMC8304610, “Discovery of Novel 2,4-Dianilinopyrimidine Derivatives Containing 4-(Morpholinomethyl)phenyl and N-Substituted Benzamides as Potential FAK Inhibitors and Anticancer Agents” (Molecules, 2021)
